Measurements published in patent US11234960B2, “Compositions and methods for improving mitochondrial function and treating neurodegenerative diseases and cognitive disorders” (Amazentis SA, priority 2010, dated 2022).

Key:
[1] = tested on: primary dopaminergic tyrosine hydroxylase (TH)-positive neurons; assay: Neurite outgrowth in primary dopaminergic TH-positive neurons; assay type: cell-based, rat; details: 72 h; compounds 0.1 μM, SP600125 10 μM, dbcAMP 1 mM (FIG. 14)
Protocol: Primary mesencephalic cultures were prepared from rat E14 embryos. Ventral mesencephalon was carefully dissected and dissociated. Cells were then plated in DMEM F12 medium containing 10% heat inactivated horse serum at the density of 100,000 cells/well (96-well plate), with or without the JNK-specific inhibitor SP600125 (10 μM) (which served as a negative control) or dbcAMP (1 mM) (which served as a positive control), or the compounds tested each at the doses of 0.1 μM.
72 h after plating, the effects on the neurite outgrowth of dopaminergic tyrosine hydroxylase (TH)-positive neurons were measured from images acquired by automated confocal microscopy (X4 objective, montage 4×4) and covering the entire well surface, and quantified using the Neurite outgrowth module of Metamorph® software. Several representative parameters of neurite outgrowth were thus generated: total and mean outgrowth, total and mean number of processes per cell, and total and percentage of cells with extensive outgrowth (defined as outgrowth longer than 20 μm) were analyzed. All experiments were performed in quadruplicate.

PC-12 cells = assay: Neurite outgrowth in NGF-differentiated PC-12 cells; assay type: cell-based, rat; details: 0.5 μM
Protocol: The ellagitannins and their metabolites tested in the assays were synthesized or purchased from suppliers which included Funakoshi, Sigma, and Chemos. Stock solutions were aliquoted and stored at −20° C.
PC-12 cells (ATCC CRL-1721) were cultured at 37° C., 5% CO2 in poly L-lysine-coated culture flasks in complete culture medium (RPMI 1640+10% heat-inactivated horse serum+5% fetal bovine serum).
Cell differentiation was performed in culture flasks 24 h after plating, in complete medium supplemented with 100 ng/mL NGF (2.5 S NGF, Invitrogen). The NGF-supplemented medium was renewed every third day, and differentiation was induced over an 8-day period.
All compounds to be tested were prepared just before the experiment as a 50 mM stock solution in dimethylsulfoxide (DMSO). The final DMSO concentration was 0.1% in the medium of all experimental groups.
For neurite outgrowth measurements, differentiated cells were washed with phosphate-buffered saline (PBS), collected after detachment and replated at a density of 5,000 cells/well (biocoat imaging 96 well plate) in complete medium supplemented with 100 ng/mL NGF, with or without 10 μM SP600125 (negative control), 1 mM dbcAMP (positive control), or tested compound at 5×10^−7 M. In the undifferentiated control group, no NGF was added after replating.
After 72 h in culture, PC-12 cells were washed with PBS and fixed in 1% paraformaldehyde solution for 20 minutes. After 3 washes with PBS, immunofluorescence labeling was performed with Texas Red Maleimide probe, which reacts with thiol groups of cysteine residues of proteins, permitting the visualization of the entire cell morphology, including neurites.
Immunofluorescence analysis was performed in automated confocal microscopy. Images were acquired with a BD pathway 855 system, under X20 objective with 8×8 field montage. Neurite outgrowth was then measured from acquired images with the neurite module of Metamorph® software. Total and mean outgrowth, total and mean number of processes per cell, and total and percentage of cells with extensive outgrowth (defined as outgrowth longer than 20 μm) were analyzed.

**Q.** How did the increase in branching [1] turn out when `CCCC(=O)Nc1ncnc2c1ncn2[C@@H]1O[C@@H]2COP(=O)(O)O[C@H]2[C@H]1OC(=O)CCC` [dbcAMP, dibutyryl cyclic AMP] was run?
**A.** 86%

**Q.** Which increase in branching [1] does the source give for `Oc1c2ccccc2c2c3c(cccc13)N=N2` [SP600125] here?
**A.** 60%

**Q.** How did the “percent of cells showing significant outgrowth (>20 μm), increase vs differentiated cells” value (PC-12 cells; 72 h (FIG. 8)) turn out when `O=C1OC[C@H]2OC(O)[C@H](O)[C@@H](O)[C@@H]2OC(=O)c2cc(O)c(O)c(O)c2-c2c(O)c(O)c3oc(=O)c4c(c(O)c(O)c5oc(=O)c2c3c54)-c2c1cc(O)c(O)c2O` (mixture of isomers) [punicalin] was run?
**A.** 26%

**Q.** What about the “number of processes (in words)” value (PC-12 cells; 72 h, differentiated PC-12 cells) of the same molecule?
**A.** induced an increase in the number of processes
